Experiment [1] concerns the target T1, Nitric oxide synthase, inducible (Mus musculus, UniProt P29477).
T1 sequence (P29477 whole entry): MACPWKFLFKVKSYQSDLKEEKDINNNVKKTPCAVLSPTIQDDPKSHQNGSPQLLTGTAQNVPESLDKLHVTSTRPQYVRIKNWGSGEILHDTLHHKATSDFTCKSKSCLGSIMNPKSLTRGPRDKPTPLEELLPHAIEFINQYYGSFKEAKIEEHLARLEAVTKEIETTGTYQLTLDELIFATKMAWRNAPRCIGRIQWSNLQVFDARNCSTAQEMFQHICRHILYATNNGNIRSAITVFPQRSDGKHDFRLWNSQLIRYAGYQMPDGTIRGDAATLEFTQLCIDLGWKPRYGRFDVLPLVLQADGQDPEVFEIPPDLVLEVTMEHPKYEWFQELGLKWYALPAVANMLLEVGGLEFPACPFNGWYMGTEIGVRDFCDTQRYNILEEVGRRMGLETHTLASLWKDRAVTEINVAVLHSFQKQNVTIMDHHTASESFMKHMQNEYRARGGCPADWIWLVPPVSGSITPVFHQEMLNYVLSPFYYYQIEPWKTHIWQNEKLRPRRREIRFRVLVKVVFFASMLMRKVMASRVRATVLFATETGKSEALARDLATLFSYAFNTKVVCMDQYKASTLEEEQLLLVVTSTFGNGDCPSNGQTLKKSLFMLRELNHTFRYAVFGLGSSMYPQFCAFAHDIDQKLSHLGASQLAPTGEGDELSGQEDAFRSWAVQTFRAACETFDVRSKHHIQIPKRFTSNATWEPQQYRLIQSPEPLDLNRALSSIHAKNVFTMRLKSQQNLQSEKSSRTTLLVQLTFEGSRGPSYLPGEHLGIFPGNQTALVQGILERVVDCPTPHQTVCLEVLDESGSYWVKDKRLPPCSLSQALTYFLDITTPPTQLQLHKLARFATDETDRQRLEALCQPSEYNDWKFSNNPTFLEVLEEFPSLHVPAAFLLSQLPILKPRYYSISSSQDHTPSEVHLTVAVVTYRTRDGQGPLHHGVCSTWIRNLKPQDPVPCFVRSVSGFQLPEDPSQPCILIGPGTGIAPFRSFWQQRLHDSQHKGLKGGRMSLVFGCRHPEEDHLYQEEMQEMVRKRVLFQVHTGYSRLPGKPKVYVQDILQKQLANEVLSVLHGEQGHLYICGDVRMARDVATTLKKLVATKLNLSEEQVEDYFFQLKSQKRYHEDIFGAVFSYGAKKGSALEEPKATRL
Put plainly: Compound was tested for its inhibitory activity against macrophage NO2- synthesis.

In experiment [2] the target is T2, Nitric oxide synthase 3 (Bos taurus, UniProt P29473).
T2 sequence (P29473 whole entry): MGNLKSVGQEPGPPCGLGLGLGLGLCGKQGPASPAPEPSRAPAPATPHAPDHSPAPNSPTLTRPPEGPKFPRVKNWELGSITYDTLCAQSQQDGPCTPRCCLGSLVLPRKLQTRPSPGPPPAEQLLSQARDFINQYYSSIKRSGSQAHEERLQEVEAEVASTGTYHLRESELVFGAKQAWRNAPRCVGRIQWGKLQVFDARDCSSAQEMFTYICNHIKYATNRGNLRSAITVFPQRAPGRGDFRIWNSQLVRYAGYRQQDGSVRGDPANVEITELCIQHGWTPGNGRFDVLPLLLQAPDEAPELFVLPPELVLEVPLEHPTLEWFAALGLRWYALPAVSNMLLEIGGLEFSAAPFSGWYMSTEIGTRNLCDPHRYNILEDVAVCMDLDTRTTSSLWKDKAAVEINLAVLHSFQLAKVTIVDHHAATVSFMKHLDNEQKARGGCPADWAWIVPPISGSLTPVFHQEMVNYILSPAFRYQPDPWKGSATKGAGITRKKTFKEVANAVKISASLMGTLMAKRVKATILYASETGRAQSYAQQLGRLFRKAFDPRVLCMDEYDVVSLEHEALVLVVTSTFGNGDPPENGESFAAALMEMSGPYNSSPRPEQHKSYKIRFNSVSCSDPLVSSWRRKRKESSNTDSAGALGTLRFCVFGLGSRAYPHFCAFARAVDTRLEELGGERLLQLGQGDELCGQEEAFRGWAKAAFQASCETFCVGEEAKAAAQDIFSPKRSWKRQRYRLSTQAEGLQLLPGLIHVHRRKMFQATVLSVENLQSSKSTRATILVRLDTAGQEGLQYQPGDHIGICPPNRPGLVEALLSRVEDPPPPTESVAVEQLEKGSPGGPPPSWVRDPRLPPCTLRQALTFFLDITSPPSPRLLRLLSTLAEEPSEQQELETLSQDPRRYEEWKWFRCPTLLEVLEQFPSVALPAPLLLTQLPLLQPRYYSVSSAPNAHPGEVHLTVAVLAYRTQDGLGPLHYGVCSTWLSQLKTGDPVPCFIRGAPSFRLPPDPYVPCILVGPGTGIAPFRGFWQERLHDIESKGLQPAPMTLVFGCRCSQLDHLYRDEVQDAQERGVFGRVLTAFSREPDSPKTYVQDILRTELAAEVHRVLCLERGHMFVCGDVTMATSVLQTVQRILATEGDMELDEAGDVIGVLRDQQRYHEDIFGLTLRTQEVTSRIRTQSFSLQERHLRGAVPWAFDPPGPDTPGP
Nature of the experiment: Compound was tested for its inhibitory activity against endothelial NO2- synthesis.

What is called IC50 is the concentration that gives 50% inhibition. A higher IC50 goes with weaker potency in that assay. In turn, `CNC(N)NCCCC(N)C(=O)O` (configuration not stated) had an IC50 in experiment [1] of 60 µM.
In experiment [2], `COC(=O)[C@@H](N)CCCNC(=N)N[N+](=O)[O-]` [L-NAME] had an IC50 of 100 µM.

The record behind these values is ChEMBL document CHEMBL1127552, “Approaches toward selective inhibition of nitric oxide synthase” (J Med Chem, 1994).
